Measurements from patent US20030216361A1, “Therapeutic compositions effective against gram positive bacteria” (priority 2000, published 2003).
Converted amounts (≈) assume the structure as drawn. Like-named read-outs stand apart in the source and are kept apart here.

Tests used:
[1] = test system: E. faecalis ATCC 29212; experiment: Effect of pH on broth macrodilution MICs; assay type: cell-based, Enterococcus faecalis
[2] = test system: Pseudomonas aeruginosa Presque Isle 99; experiment: Disk diffusion susceptibility testing
[3] = test system: Stenotrophomonas maltophilia ATCC 13637; experiment: Disk diffusion susceptibility testing
[4] = test system: Methicillin-resistant Staphylococcus aureus, clinical isolate; experiment: Effect of pH on broth macrodilution MICs; assay type: cell-based
[5] = test system: Enterobacter cloacae ATCC 13047; experiment: Disk diffusion susceptibility testing
[6] = test system: Corynebacterium diphtheriae, clinical isolate; experiment: Effect of pH on broth macrodilution MICs; assay type: cell-based
[7] = test system: Corynebacterium diphtheriae; experiment: Broth macrodilution MIC and MBC, clinical isolates; details: 3 strains
[8] = test system: S. saprophyticus; experiment: Broth macrodilution MIC and MBC, clinical isolates; details: 3 strains
[9] = test system: Staphylococcus epidermidis Presque Isle 4653; experiment: Disk diffusion susceptibility testing
[10] = test system: Arcanobacterium haemolyticum; experiment: Broth macrodilution MIC and MBC, clinical isolates; details: clinical isolate, 1 strain
[11] = test system: Candida albicans ATCC 90028; experiment: Disk diffusion susceptibility testing
[12] = test system: Streptococcus pneumoniae ATCC 6303; experiment: Broth macrodilution MIC and MBC, reference strains; details: ATCC6303
[13] = test system: Bacillus subtilis; experiment: Broth macrodilution MIC and MBC, clinical isolates; details: 4 strains
[14] = test system: Proteus vulgaris Presque Isle 365; experiment: Disk diffusion susceptibility testing
[15] = test system: Bacillus subtilis Presque Isle 620; experiment: Broth macrodilution MIC and MBC, reference strains
[16] = test system: Vancomycin-resistant E. faecium; experiment: Broth macrodilution MIC and MBC, clinical isolates; details: 2 strains
[17] = test system: Vancomycin-resistant Enterococcus spp.; experiment: Broth macrodilution MIC and MBC, clinical isolates
[18] = test system: Penicillin-resistant Streptococcus pneumoniae; experiment: Broth macrodilution MIC and MBC, clinical isolates
[19] = test system: Listeria monocytogenes; experiment: Broth macrodilution MIC and MBC, clinical isolates; details: 3 strains
[20] = test system: Bacillus subtilis Presque Isle 620; experiment: Effect of pH on broth macrodilution MICs; assay type: cell-based
[21] = test system: Enterococcus faecalis 29212; experiment: Time-kill studies; assay type: cell-based; details: E. faecalis
Source text: (§1) This experiment illustrates a study of the time required (time-kill studies) for anti-microbial action of 3β-acetoxy-17β-(L-prolyl) amino-5α-androstane with certain gram positive bacteria.
(§2) Overnight cultures of Staphylococcus aureus 29213, Enterococcus faecalis 29212 and S. pneumoniae 6303 in MHII broth were inoculated into the same medium containing multiples of the broth macrodilution MIC of 3β-acetoxy-17β-(L-prolyl) amino-5α-androstane, or an equivalent volume of MeOH. Cultures were shaken at 37° C., and aliquots were aseptically removed at various times for dilution plating. Standard errors of the means were calculated from at least two experiments. The detection limit in these experiments was 10 CFU/ml.

[22] = test system: Staphylococcus aureus 29213; experiment: Time-kill studies; assay type: cell-based; details: S. aureus
Source text: as §1, §2

[23] = test system: Neisseria gonorrhoeae ATCC 49226; experiment: Disk diffusion susceptibility testing
[24] = test system: B. circulans; experiment: Broth macrodilution MIC and MBC, clinical isolates; details: clinical isolate, 1 strain
[25] = test system: Group A Streptococcus; experiment: Broth macrodilution MIC and MBC, clinical isolates
[26] = test system: Corynebacterium hoagi ATCC 7005; experiment: Broth macrodilution MIC and MBC, reference strains; details: ATCC7005
[27] = test system: Staphylococcus aureus ATCC 29213; experiment: Broth macrodilution MIC and MBC, reference strains; details: ATCC29213
[28] = test system: Vancomycin-resistant Enterococcus faecalis, clinical isolate; experiment: Effect of pH on broth macrodilution MICs; assay type: cell-based
[29] = pH 6, range of 3 determinations
[30] = pH 7, range of 3 determinations
[31] = pH 8, range of 3 determinations

CC(=O)O[C@H]1CC[C@@]2(C)[C@@H](CC[C@@H]3[C@@H]2CC[C@]2(C)[C@@H](NC(=O)[C@@H]4CCCN4)CC[C@@H]32)C1
MIC Range [1, 29]: 32 µg/mL (≈ 74.3 µM) | MIC Range [1, 30]: 8 to 16 µg/mL | MIC Range [1, 31]: 4 to 8 µg/mL | MIC [2]: >100 μg/disk | MIC [3]: >100 μg/disk | MIC Range [4, 29]: 16 µg/mL (≈ 37.2 µM) | MIC Range [4, 30]: 8 µg/mL (≈ 18.6 µM) | MIC Range [4, 31]: 4 µg/mL (≈ 9.29 µM) | MIC [5]: >100 μg/disk | MIC Range [6, 29]: 16 µg/mL (≈ 37.2 µM) | MIC Range [6, 30]: 4 to 8 µg/mL | MIC Range [6, 31]: 2 to 4 µg/mL | MBC Range [7]: 8 µg/mL (≈ 18.6 µM) | MIC Range [7]: 4 to 8 µg/mL | MBC Range [8]: 8 µg/mL (≈ 18.6 µM) | MIC Range [8]: 4 to 8 µg/mL | MIC [9]: 6.25-12.5 μg/disk | MBC Range [10]: 32 µg/mL (≈ 74.3 µM) | MIC Range [10]: 16 µg/mL (≈ 37.2 µM) | MIC [11]: >100 μg/disk | MBC [12]: 16 µg/mL (≈ 37.2 µM) | MIC [12]: 16 µg/mL (≈ 37.2 µM) | MIC Range [13]: 8 µg/mL (≈ 18.6 µM) | MIC [14]: >100 μg/disk | MBC [15]: 4 µg/mL (≈ 9.29 µM) | MIC [15]: 4 µg/mL (≈ 9.29 µM) | MBC Range [16]: 16 to 64 µg/mL | MIC Range [16]: 8 to 16 µg/mL | MIC50 ([17]; Enterococcus): 8 µg/mL (≈ 18.6 µM) | MIC90 ([17]; Enterococcus): 16 µg/mL (≈ 37.2 µM) | MBC ([17]; Enterococcus, read-out: MBC 50%): 16 µg/mL (≈ 37.2 µM) | MBC ([17]; Enterococcus, read-out: MBC 90%): > 64 µg/mL | MIC Range ([17]; clinical isolates, 34 strains): 4 to 16 µg/mL | share of strains with MBC/MIC ratios ≦2 ([17]; vancomycin-resistant Enterococcus spp.): 59% | MIC50 ([18]; Streptococcus pneumoniae): 16 µg/mL (≈ 37.2 µM) | MIC90 ([18]; Streptococcus pneumoniae): 16 µg/mL (≈ 37.2 µM) | MBC ([18]; Streptococcus pneumoniae, read-out: MBC 50%): 16 µg/mL (≈ 37.2 µM) | MBC ([18]; Streptococcus pneumoniae, read-out: MBC 90%): 32 µg/mL (≈ 74.3 µM) | MIC Range ([18]; clinical isolates, 35 strains): 8 to 32 µg/mL | share of strains with MBC/MIC ratios ≦2 ([18]; penicillin-resistant S. pneumoniae): 88% | MBC Range [19]: 32 to 64 µg/mL | MIC Range [19]: 16 to 32 µg/mL | MIC Range [20, 29]: 8 µg/mL (≈ 18.6 µM) | MIC Range [20, 30]: 4 to 8 µg/mL | MIC Range [20, 31]: 4 to 8 µg/mL | Killing (time dependence) [21]: time-dependent | time to 99.9% kill ([21]; eight times the MIC): 4 h | survivors after 24 h ([21]; eight times the MIC): no survivors | time to 99.9% kill ([21]; four times the MIC): 8 h | survivors after 24 h ([21]; four times the MIC): no survivors | time to 99.9% kill ([21]; two times the MIC): 8 h | Killing (time dependence) [22]: time-dependent | MIC [23]: >100 μg/disk | MBC Range [24]: >64 µg/mL | MIC Range [24]: 16 µg/mL (≈ 37.2 µM) | share of strains with MBC/MIC ratios ≦2 ([25]; Group A Streptococcus): 89% | MIC50 ([25]; Streptococcus): 8 µg/mL (≈ 18.6 µM) | MIC90 ([25]; Streptococcus): 16 µg/mL (≈ 37.2 µM) | MBC ([25]; Streptococcus, read-out: MBC 50%): 16 µg/mL (≈ 37.2 µM) | MBC ([25]; Streptococcus, read-out: MBC 90%): 32 µg/mL (≈ 74.3 µM) | MBC Range ([25]; clinical isolates, 18 strains): 8 to 32 µg/mL | MIC Range ([25]; clinical isolates, 18 strains): 8 to 16 µg/mL | MBC [26]: 32 µg/mL (≈ 74.3 µM) | MIC [26]: 8 µg/mL (≈ 18.6 µM) | MBC [27]: 64 µg/mL (≈ 149 µM) | MIC [27]: 4 µg/mL (≈ 9.29 µM) | MIC Range [28, 29]: 32 µg/mL (≈ 74.3 µM) | MIC Range [28, 30]: 8 µg/mL (≈ 18.6 µM) | MIC Range [28, 31]: 4 to 8 µg/mL
